Measurements published in US10280169B2, “Biaryl bruton's tyrosine kinase inhibitors” (BIOGEN MA INC., priority 2013, dated 2019).
pIC50: −log10 of the molar value.

Target: T1, BTK (Homo sapiens, UniProt Q06187)
T1 construct: purchased Upstate 14-552
Experiment: In vitro BTK kinase assay: BTK-POLYGAT-LS assay
Assay type: biochemical
Details: 10 uM ATP, read-out: IC50 (10 uMATP)

T1 sequence (Q06187 whole entry): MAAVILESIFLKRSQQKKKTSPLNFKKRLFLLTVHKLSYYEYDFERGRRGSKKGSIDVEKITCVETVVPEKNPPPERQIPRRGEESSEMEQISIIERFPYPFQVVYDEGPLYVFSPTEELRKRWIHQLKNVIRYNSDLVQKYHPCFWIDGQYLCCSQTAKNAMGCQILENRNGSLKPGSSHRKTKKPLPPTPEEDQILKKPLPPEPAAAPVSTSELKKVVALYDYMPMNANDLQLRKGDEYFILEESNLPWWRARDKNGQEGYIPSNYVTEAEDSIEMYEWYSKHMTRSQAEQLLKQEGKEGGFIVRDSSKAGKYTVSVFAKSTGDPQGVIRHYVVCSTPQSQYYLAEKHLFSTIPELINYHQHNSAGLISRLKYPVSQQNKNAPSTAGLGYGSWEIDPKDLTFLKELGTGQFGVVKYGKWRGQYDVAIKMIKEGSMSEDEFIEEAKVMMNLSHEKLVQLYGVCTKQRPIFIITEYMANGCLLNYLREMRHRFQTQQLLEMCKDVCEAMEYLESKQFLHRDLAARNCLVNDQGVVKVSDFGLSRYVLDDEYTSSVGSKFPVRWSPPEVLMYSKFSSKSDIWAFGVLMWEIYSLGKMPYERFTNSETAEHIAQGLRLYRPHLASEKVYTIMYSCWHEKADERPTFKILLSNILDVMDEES

pIC50	Structure (SMILES)
5.00 to 6.00	NC(=O)C(NC(=O)c1cc2c(s1)CCCC2)c1ccc(-c2ncnc3[nH]ncc23)cc1 (stereo not drawn) [Example I-151, N-(1-(4-(1H-pyrazolo[3,4-d]pyrimidin-4-yl)phenyl)-2-amino-2-oxoethyl)-4,5,6,7-tetrahydrobenzo[b]thiophene-2-carboxamide]
6.00 to 7.00	CCC(NC(=O)c1cc2c(s1)CCCC2)c1ccc(-c2ncnc3[nH]ncc23)cc1 (stereo not drawn) [Example I-143, N-(1-(4-(1H-pyrazolo[3,4-d]pyrimidin-4-yl)phenyl)propyl)-4,5,6,7-tetrahydrobenzo[b]thiophene-2-carboxamide]
7.00 to 8.00	O=C(NCc1ccc(-c2ncnc3[nH]ccc23)cc1)c1cc2ccccc2s1 [Example I-61, N-(4-(7H-pyrrolo[2,3-d]pyrimidin-4-yl)benzyl)benzo[b]thiophene-2-carboxamide]
7.00 to 8.00	CC(C)(C)c1ccc(C(=O)NCc2ccc(-c3ncnc4[nH]ccc34)cc2C(F)(F)F)cc1 [Example I-3, N-(4-(7H-pyrrolo[2,3-d]pyrimidin-4-yl)-2-(trifluoromethyl)benzyl)-4-(tert-butyl)benzamide]
7.00 to 8.00	Cc1cc(-c2ncnc3cc[nH]c23)ccc1C(C)NC(=O)c1cnc(C(C)(C)C)s1 (stereo not drawn) [Example I-134, 2-(tert-butyl)-N-(1-(2-methyl-4-(5H-pyrrolo[3,2-d]pyrimidin-4-yl)phenyl)ethyl)thiazole-5-carboxamide]
> 8.00	O=C(NC1CCCc2cc(-c3ncnc4[nH]ncc34)ccc21)c1cc2ccccc2s1 (stereo not drawn) [Example I-120, N-(6-(1H-pyrazolo[3,4-d]pyrimidin-4-yl)-1,2,3,4-tetrahydronaphthalen-1-yl)benzo[b]thiophene-2-carboxamide]
7.00 to 8.00	CC(C)(C)c1ccc(C(=O)NCc2cc(F)c(-c3ncnc4[nH]ccc34)cc2Cl)nc1 [Example I-13, 5-(tert-butyl)-N-(2-chloro-5-fluoro-4-(7H-pyrrolo[2,3-d]pyrimidin-4-yl)benzyl)picolinamide]
> 8.00	Cc1cc(-c2ncnc3[nH]c(-c4cnn5c4CN(C)CC5)cc23)ccc1CNC(=O)c1cnc(C(C)(C)C)s1 [Example I-102, 2-(tert-butyl)-N-(2-methyl-4-(6-(5-methyl-4,5,6,7-tetrahydropyrazolo[1,5-a]pyrazin-3-yl)-7H-pyrrolo[2,3-d]pyrimidin-4-yl)benzyl)thiazole-5-carboxamide]
> 8.00	Cn1cc(-c2cc3c(-c4ccc5c(c4)CCCCC5NC(=O)c4cnn(C(C)(C)C)c4)ncnc3[nH]2)cn1 (stereo not drawn) [Example I-160, 1-(tert-butyl)-N-(2-(6-(1-methyl-1H-pyrazol-4-yl)-7H-pyrrolo[2,3-d]pyrimidin-4-yl)-6,7,8,9-tetrahydro-5H-benzo[7]annulen-5-yl)-1H-pyrazole-4-carboxamide]
7.00 to 8.00	CC(NC(=O)c1nc2c(s1)CCCC2)c1ccc(-c2ncnc3[nH]ccc23)cc1C(F)(F)F (stereo not drawn) [Example I-79, N-(1-(4-(7H-pyrrolo[2,3-d]pyrimidin-4-yl)-2-(trifluoromethyl)phenyl)ethyl)-4,5,6,7-tetrahydrobenzo[d]thiazole-2-carboxamide]
5.00 to 6.00	C[C@H](NC(=O)c1nc2c(s1)CCCC2)c1ccc(-c2ncnc3[nH]ccc23)cc1 [Example I-75, (S)—N-(1-(4-(7H-pyrrolo[2,3-d]pyrimidin-4-yl)phenyl)ethyl)-4,5,6,7-tetrahydrobenzo[d]thiazole-2-carboxamide]
7.00 to 8.00	CC(C)(C)c1ccc(C(=O)NC2CCCc3cc(-c4ncnc5[nH]ccc45)ccc32)cc1 (stereo not drawn) [Example I-14, N-(6-(7H-pyrrolo[2,3-d]pyrimidin-4-yl)-1,2,3,4-tetrahydronaphthalen-1-yl)-4-(tert-butyl)benzamide]
5.00 to 6.00	CC(C)(C)c1ccc(C(=O)NC2COCc3cc(-c4ncnc5[nH]ccc45)ccc32)cc1 (stereo not drawn) [Example I-83, N-(7-(7H-pyrrolo[2,3-d]pyrimidin-4-yl)isochroman-4-yl)-4-(tert-butyl)benzamide]
5.00 to 6.00	O=C(NCc1ccc(-c2ncnc3[nH]ccc23)cc1)c1cc2c(cn1)CCCC2 [Example I-57, N-(4-(7H-pyrrolo[2,3-d]pyrimidin-4-yl)benzyl)-5,6,7,8-tetrahydroisoquinoline-3-carboxamide]
7.00 to 8.00	CC(NC(=O)c1cc2c(s1)CCCC2)c1ccc(-c2ncnc3[nH]ccc23)cc1C(F)(F)F (stereo not drawn) [Example I-80, N-(1-(4-(7H-pyrrolo[2,3-d]pyrimidin-4-yl)-2-(trifluoromethyl)phenyl)ethyl)-4,5,6,7-tetrahydrobenzo[b]thiophene-2-carboxamide]
7.00 to 8.00	O=C(NCc1ccc(-c2ccnc3[nH]ccc23)nc1)c1cc2c(s1)CCCC2 [Example I-73, N-((6-(1H-pyrrolo[2,3-b]pyridin-4-yl)pyridin-3-yl)methyl)-4,5,6,7-tetrahydrobenzo[b]thiophene-2-carboxamide]
> 8.00	Cc1cc(-c2ncnc3cc(C4CCS(=O)(=O)CC4)[nH]c23)ccc1CNC(=O)c1cnc(C(C)(C)C)s1 [Example I-23, 2-(tert-butyl)-N-(4-(6-(1,1-dioxidotetrahydro-2H-thiopyran-4-yl)-5H-pyrrolo[3,2-d]pyrimidin-4-yl)-2-methylbenzyl)thiazole-5-carboxamide]
> 8.00	CC(C)(C)c1ccc(C(=O)NCc2ccc(-c3ncnc4[nH]c(-c5ccc(C(=O)N6CCOCC6)cc5)cc34)cc2)cc1 [Example I-111, 4-(tert-butyl)-N-(4-(6-(4-(morpholine-4-carbonyl)phenyl)-7H-pyrrolo[2,3-d]pyrimidin-4-yl)benzyl)benzamide]
7.00 to 8.00	O=c1c2c(F)cc(C3CC3)cc2ccn1C1CCCc2cc(-c3ncnc4[nH]ncc34)ccc21 (stereo not drawn) [Example I-138, 2-(6-(1H-pyrazolo[3,4-d]pyrimidin-4-yl)-1,2,3,4-tetrahydronaphthalen-1-yl)-6-cyclopropyl-8-fluoroisoquinolin-1(2H)-one]
6.00 to 7.00	CC(C)(C)c1ncc(C(=O)N[C@@H]2CCCc3cc(-c4ccnc5[nH]ncc45)cnc32)s1 [Example I-144, (R)—N-(3-(1H-pyrazolo[3,4-b]pyridin-4-yl)-5,6,7,8-tetrahydroquinolin-8-yl)-2-(tert-butyl)thiazole-5-carboxamide]
> 8.00	Cn1cc(-c2cc3c(-c4ccc5c(c4)CCCC5NC(=O)c4cnn(C(C)(C)C)c4)ncnc3[nH]2)cn1 (stereo not drawn) [Example I-156, 1-(tert-butyl)-N-(6-(6-(1-methyl-1H-pyrazol-4-yl)-7H-pyrrolo[2,3-d]pyrimidin-4-yl)-1,2,3,4-tetrahydronaphthalen-1-yl)-1H-pyrazole-4-carboxamide]
> 8.00	O=C(NC1CCCc2cc(-c3ncnc4[nH]ncc34)ccc21)c1cc2c(s1)CCCC2 (stereo not drawn) [Example I-107, N-(6-(1H-pyrazolo[3,4-d]pyrimidin-4-yl)-1,2,3,4-tetrahydronaphthalen-1-yl)-4,5,6,7-tetrahydrobenzo[b]thiophene-2-carboxamide]
7.00 to 8.00	O=C(NC1CCCc2cc(-c3ncnc4[nH]ncc34)ccc21)c1ccc(C(F)(F)F)c(F)c1 (stereo not drawn) [Example I-91, N-(6-(1H-pyrazolo[3,4-d]pyrimidin-4-yl)-1,2,3,4-tetrahydronaphthalen-1-yl)-3-fluoro-4-(trifluoromethyl)benzamide]
> 8.00	CCc1cc(-c2ncnc3[nH]ccc23)ccc1CNC(=O)c1ccc(C(C)(C)C)cn1 [Example I-11, 5-(tert-butyl)-N-(2-ethyl-4-(7H-pyrrolo[2,3-d]pyrimidin-4-yl)benzyl)picolinamide]
